Reference: ChEMBL document CHEMBL1158570, “Secondary metabolites from the roots of Litsea hypophaea and their antitubercular activity” (2010)
≈ marks a conversion by molar mass, not a printed value.

The compounds below were run on Mycobacterium tuberculosis (assay: Antimycobacterial activity against Mycobacterium tuberculosis H37Rv after 2 weeks). Conditions: 336 h.
Assay type: functional
CCCCCCCCCCCCC/C=C1/C(=O)O[C@](C)(OC)[C@@H]1O [LITSEAKOLIDE L] was tested, and the MIC was 25 µg/mL (≈ 73.4 µM).
CC[C@@H](CO)NCCN[C@@H](CC)CO [ETHAMBUTOL] gave an MIC of 6.25 µg/mL (≈ 30.6 µM).
With COc1cc(/C=C/C(=O)NCCc2ccc(O)cc2)ccc1O [N-TRANS-FERULOYL TYRAMINE] the MIC was 60 µg/mL (≈ 191 µM).
With COc1cc(/C=C/C(=O)NCCc2ccc(O)c(OC)c2)ccc1O the MIC was 1.6 µg/mL (≈ 4.66 µM).
For COc1cc(/C=C/C(=O)NCCc2ccc(O)cc2)cc(OC)c1O [TRANS-N-SINAPOYLTYRAMINE], the MIC was > 100 µg/mL.
In the case of COc1cc(C2c3c(cc(OC)c(O)c3OC)C=C(C(=O)NCCc3ccc(O)cc3)C2C(=O)NCCc2ccc(O)cc2)cc(OC)c1O (configuration not stated), the MIC is reported as > 100 µg/mL.
In the case of COc1cc(OC)c(C[C@@H](O)Cc2ccc(OC)c(OC)c2)c(OC)c1 [HYPOPHAOL], the MIC is reported as 100 µg/mL (≈ 276 µM).
